Values of other authors, collected in PMC8764166, “Phenolic-Rich Plant Extracts With Antimicrobial Activity: An Alternative to Food Preservatives and Biocides?” (Frontiers in Microbiology, 2022).
≈ marks a conversion by molar mass, not a printed value. Like-named read-outs stand apart in the source and are kept apart here.

Legend:
Bacillus cereus = settings: for MIC against Bacillus cereus: ref Skroza et al., 2019
Pseudomonas aeruginosa = settings: 2020
Enterococcus faecalis = settings: for MIC against Enterococcus faecalis: ref Adamczak et al., 2020
Salmonella Infantis = tested on: Salmonella Infantis; set-up: method as in Skroza et al., 2019; settings: ref Skroza et al., 2019
L. monocytogenes = tested on: L. monocytogenes; set-up: method as in Pernin et al., 2019; settings: ref Pernin et al., 2019
[1] = tested on: biofilms with undesirable food spoiling or foodborne pathogenic microorganisms; set-up: method as in the references listed per substance; settings: the references listed per substance
S. aureus = settings: up to 20% (w/w) proteins, 37°C, 15°C or 6°C; ref Bouarab-Chibane et al. (2018b)
[2] = ŽMJ 129 (clinical isolate), 10^5–10^6 cfu·ml^−1, Mueller Hinton broth, 24 h 37°C, ref Skroza et al., 2019

For CC(C)=CCc1c(O)ccc2c1O[C@H]1c3ccc(O)cc3OC[C@@H]21 [Phaseollidin], the “MIC against E. coli” value (Escherichia coli; ref Sadgrove et al., 2020) is given as 20 µg/mL (≈ 61.7 µM), the “MIC against B. cereus” value (Bacillus cereus; ref Sadgrove et al., 2020) is given as 10 µg/mL (≈ 30.8 µM) and the “MIC against S. aureus” value (Staphylococcus aureus; ref Sadgrove et al., 2020) is given as 10 µg/mL (≈ 30.8 µM). For the same compound, the “MIC against P. aeruginosa” value (Pseudomonas aeruginosa; ref Sadgrove et al.) was 20 µg/mL (≈ 61.7 µM).
For O=C(/C=C/c1ccc(O)c(O)c1)O[C@H](Cc1ccc(O)c(O)c1)C(=O)O [Rosmarinic acid], the “MIC against E. coli” value (Escherichia coli; ref Adamczak et al., 2020) is given as 500 µg/mL (≈ 1390 µM), the “MIC against E. coli” value (Escherichia coli; [2]) is given as “S. aureus 0.45 g·L^−1 B. cereus 0.45 g·L^−1 E. coli 0.45 g·L^−1 S. Infantis 0.45 g·L^−1” and the “MIC against Bacillus cereus” value (Bacillus cereus) is given as “S. aureus 0.45 g·L^−1 B. cereus 0.45 g·L^−1 E. coli 0.45 g·L^−1 S. Infantis 0.45 g·L^−1”. The “MIC against Enterococcus faecalis” value (Enterococcus faecalis) was 1000 µg/mL (≈ 2780 µM), the “MIC against S. aureus” value (Staphylococcus aureus; ref Skroza et al., 2019) was “S. aureus 0.45 g·L^−1 B. cereus 0.45 g·L^−1 E. coli 0.45 g·L^−1 S. Infantis 0.45 g·L^−1” and the “MIC against P. aeruginosa” value (Pseudomonas aeruginosa; ref Adamczak et al.) was 500 to 1000 µg/mL. The “MIC against Salmonella Infantis” value (Salmonella Infantis) was “S. aureus 0.45 g·L^−1 B. cereus 0.45 g·L^−1 E. coli 0.45 g·L^−1 S. Infantis 0.45 g·L^−1”.
In the case of O=C(O)c1ccc(O)cc1 [p-hydroxybenzoic acid], the “mechanism of action against L. monocytogenes” value (L. monocytogenes) is listed as “penetration or accumulation in the bacterial membrane of undissociated form”.
For O=c1c(O)c(-c2cc(O)c(O)c(O)c2)oc2cc(O)cc(O)c12 [myricetin], the activity against biofilms [1] is listed as “inhibit formation or to eradicate biofilms”.
For O=c1cc(-c2ccc(O)cc2)oc2cc(O)c([C@@H]3O[C@H](CO)[C@@H](O)[C@H](O)[C@H]3O)c(O)c12 [isovitexin], the “MIC against E. coli” value (Escherichia coli; ref Adamczak et al., 2020) is listed as 500 µg/mL (≈ 1160 µM), the “MIC against Enterococcus faecalis” value (Enterococcus faecalis) is listed as 1000 µg/mL (≈ 2310 µM) and the “MIC against P. aeruginosa” value (Pseudomonas aeruginosa; ref Adamczak et al.) is listed as 500 µg/mL (≈ 1160 µM).
In the case of O=c1cc(-c2ccc(O)cc2)oc2cc(O)cc(O)c12 [Apigenin], the “MIC against E. coli” value (Escherichia coli; ref Adamczak et al., 2020) is listed as 500 µg/mL (≈ 1850 µM), the “MIC against Enterococcus faecalis” value (Enterococcus faecalis) is listed as 1000 µg/mL (≈ 3700 µM) and the “MIC against S. aureus” value (Staphylococcus aureus; ref Adamczak et al., 2020) is listed as 500 to 1000 µg/mL. The “MIC against P. aeruginosa” value (Pseudomonas aeruginosa; ref Adamczak et al.) was 500 µg/mL (≈ 1850 µM).
In the case of O=C1C=CC(=O)c2c(O)ccc(O)c21 [naphthazarin], the “antibacterial activity in the presence of bovine meat proteins” value (S. aureus) is given as “bactericidal at 6 °C and 15°C, unlike at 37 °C”.
In the case of C[C@@H]1O[C@@H](O[C@@H]2[C@@H](O)[C@H](O)[C@@H](CO)O[C@H]2c2c(O)cc(O)c3c(=O)cc(-c4ccc(O)cc4)oc23)[C@H](O)[C@H](O)[C@H]1O [vitexin 2"-o-rhamnoside], the “MIC against E. coli” value (Escherichia coli; ref Adamczak et al., 2020) is given as 500 µg/mL (≈ 864 µM), the “MIC against Enterococcus faecalis” value (Enterococcus faecalis) is given as 1000 µg/mL (≈ 1730 µM) and the “MIC against P. aeruginosa” value (Pseudomonas aeruginosa; ref Adamczak et al.) is given as 500 µg/mL (≈ 864 µM).
In the case of O=c1cc(-c2ccc(O)c(O)c2)oc2cc(O)c([C@@H]3O[C@H](CO)[C@@H](O)[C@H](O)[C@H]3O)c(O)c12 [isoorientin], the “MIC against E. coli” value (Escherichia coli; ref Adamczak et al., 2020) is given as 500 µg/mL (≈ 1120 µM), the “MIC against Enterococcus faecalis” value (Enterococcus faecalis) is given as 1000 µg/mL (≈ 2230 µM) and the “MIC against S. aureus” value (Staphylococcus aureus; ref Adamczak et al., 2020) is given as 500 µg/mL (≈ 1120 µM). The “MIC against P. aeruginosa” value (Pseudomonas aeruginosa; ref Adamczak et al.) was 500 µg/mL (≈ 1120 µM).
In the case of O=c1cc(-c2ccc(O)c(O)c2)oc2cc(O)cc(O)c12 [Luteolin], the “MIC against Bacillus cereus” value (Bacillus cereus) is listed as 90 µg/mL (≈ 314 µM), the “MIC against Enterococcus faecalis” value (Enterococcus faecalis) is listed as 1000 µg/mL (≈ 3490 µM) and the “MIC against S. aureus” value (Staphylococcus aureus; ref Adamczak et al., 2020) is listed as 500 µg/mL (≈ 1750 µM). The “MIC against S. aureus” value (Staphylococcus aureus; ref Skroza et al., 2019) was 45 µg/mL (≈ 157 µM) and the “MIC against P. aeruginosa” value (Pseudomonas aeruginosa; ref Adamczak et al.) was 500 µg/mL (≈ 1750 µM).
For Oc1cc(O)c2c(c1)O[C@H](c1ccc(O)c(O)c1)[C@H](O)C2 [Epicatechin], the “MIC against E. coli” value (Escherichia coli; [2]) is given as 720 µg/mL (≈ 2480 µM), the “MIC against Bacillus cereus” value (Bacillus cereus) is given as 360 µg/mL (≈ 1240 µM) and the “MIC against S. aureus” value (Staphylococcus aureus; ref Skroza et al., 2019) is given as 720 µg/mL (≈ 2480 µM). For the same compound, the “MIC against Salmonella Infantis” value (Salmonella Infantis) was 720 µg/mL (≈ 2480 µM).
For Cc1ccc(O)c(O)c1 [4-methylcatechol], the activity against biofilms [1] is given as “inhibit formation or to eradicate biofilms”.
In the case of O=c1c(O)c(-c2ccc(O)cc2)oc2cc(O)cc(O)c12 [Kaempferol], the “MIC against E. coli” value (Escherichia coli; ref Adamczak et al., 2020) is listed as “E. coli 0.5 g·L^−1”, the “MIC against E. coli” value (Escherichia coli; [2]) is listed as 360 µg/mL (≈ 1260 µM) and the “MIC against Bacillus cereus” value (Bacillus cereus) is listed as 90 µg/mL (≈ 314 µM). For the same compound, the “MIC against E. faecalis” value (Enterococcus faecalis; ref del Valle et al., 2016) was “E. faecalis 0.1 g·L^−1”, the “MIC against S. aureus” value (Staphylococcus aureus; ref Skroza et al., 2019) was 90 µg/mL (≈ 314 µM) and the “MIC against Salmonella Infantis” value (Salmonella Infantis) was 360 µg/mL (≈ 1260 µM).
In the case of O=C(O)/C=C/c1ccccc1 [cinnamic acid], the activity against biofilms [1] is given as “inhibit formation or to eradicate biofilms”.
For O=c1c(O)c(-c2ccc(O)cc2O)oc2cc(O)cc(O)c12 [morin], the activity against biofilms [1] is given as “inhibit formation or to eradicate biofilms”.
